How the values were obtained:
Type in all cases: in vivo
[1] = tested on: wheat (Triticum aestivum); assay: Test A postemergence, visual plant response rating; conditions: for Wheat plant response rating (0 to 100 scale): 500 g ai/ha, postemergence, 0 is no effect, 100 is complete control; for Wheat plant response rating: Postemergence, 125 g ai/ha, 0 to 100 scale (0 no effect, 100 complete control)
In short: (§1)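 Compared with untreated controls, treated plants received a visual injury score on a 0–100 scale around 10 days after application. The compound, in a non-phytotoxic solvent with surfactant, was given as a preemergence soil spray or postemergence at the one- to two-leaf stage.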

[2] = tested on: ragweed (common ragweed, Ambrosia elatior); assay: Test A postemergence, visual plant response rating; conditions: for Ragweed plant response rating (0 to 100 scale): 500 g ai/ha, postemergence, 0 is no effect, 100 is complete control; for Ragweed plant response rating: Postemergence, 125 g ai/ha, 0 to 100 scale (0 no effect, 100 complete control)
In short: as §1

[3] = tested on: foxtail, green (green foxtail, Setaria viridis); assay: Test A postemergence, visual plant response rating; conditions: for Foxtail, Green plant response rating (0 to 100 scale): 500 g ai/ha, postemergence, 0 is no effect, 100 is complete control; for Foxtail, Green plant response rating: Postemergence, 125 g ai/ha, 0 to 100 scale (0 no effect, 100 complete control)
In short: as §1

kochia (Kochia scoparia) [4] = assay: Test A postemergence, visual plant response rating; conditions: for Kochia plant response rating (0 to 100 scale): 500 g ai/ha, postemergence, 0 is no effect, 100 is complete control; for Kochia plant response rating: Postemergence, 125 g ai/ha, 0 to 100 scale (0 no effect, 100 complete control)
In short: as §1

[5] = tested on: pigweed (Amaranthus retroflexus); assay: Test A postemergence, visual plant response rating; conditions: for Pigweed plant response rating (0 to 100 scale): 500 g ai/ha, postemergence, 0 is no effect, 100 is complete control; for Pigweed plant response rating: Postemergence, 125 g ai/ha, 0 to 100 scale (0 no effect, 100 complete control)
In short: as §1

[6] = tested on: blackgrass (Alopecurus myosuroides); assay: Test A postemergence, visual plant response rating; conditions: for Blackgrass plant response rating (0 to 100 scale): 500 g ai/ha, postemergence, 0 is no effect, 100 is complete control; for Blackgrass plant response rating: Postemergence, 125 g ai/ha, 0 to 100 scale (0 no effect, 100 complete control)
In short: as §1

[7] = tested on: Italian ryegrass (Lolium multiflorum); assay: Test A postemergence, visual plant response rating; conditions: for Ryegrass, Italian plant response rating (0 to 100 scale): 500 g ai/ha, postemergence, 0 is no effect, 100 is complete control; for Ryegrass, Italian plant response rating: Postemergence, 125 g ai/ha, 0 to 100 scale (0 no effect, 100 complete control)
In short: as §1

[8] = tested on: barnyardgrass (Echinochloa crus-galli); assay: Test A postemergence, visual plant response rating; conditions: for Barnyardgrass plant response rating (0 to 100 scale): 500 g ai/ha, postemergence, 0 is no effect, 100 is complete control; for Barnyardgrass plant response rating: Postemergence, 125 g ai/ha, 0 to 100 scale (0 no effect, 100 complete control)
In short: as §1

corn (Zea mays) = assay: Test A postemergence, visual plant response rating; conditions: for Corn plant response rating (0 to 100 scale): 500 g ai/ha, postemergence, 0 is no effect, 100 is complete control; for Corn plant response rating: Postemergence, 125 g ai/ha, 0 to 100 scale (0 no effect, 100 complete control)
In short: as §1

[9] = tested on: ragweed (common ragweed, Ambrosia elatior); assay: Test A preemergence, visual plant response rating; conditions: approx. 10 days
In short: as §1

[10] = tested on: foxtail, green (green foxtail, Setaria viridis); assay: Test A preemergence, visual plant response rating; conditions: approx. 10 days
In short: as §1

kochia (Kochia scoparia) [11] = assay: Test A preemergence, visual plant response rating; conditions: approx. 10 days
In short: as §1

[12] = tested on: pigweed (Amaranthus retroflexus); assay: Test A preemergence, visual plant response rating; conditions: approx. 10 days
In short: as §1

[13] = tested on: Italian ryegrass (Lolium multiflorum); assay: Test A preemergence, visual plant response rating; conditions: approx. 10 days
In short: as §1

[14] = tested on: barnyardgrass (Echinochloa crus-galli); assay: Test A preemergence, visual plant response rating; conditions: approx. 10 days
In short: as §1

[15] = tested on: ducksalad (Heteranhera limosa); assay: Test B flooded paddy test, visual plant response rating; conditions: 250 g ai/ha, Flood, applied to paddy water, 2-leaf stage, evaluated after 13 to 15 days
In short: (§2)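 Seedlings at 2 leaves; compound into paddy water (3 cm flood, maintained); 13–15 d greenhouse; visual score relative to controls.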

rice (Oryza sativa) = assay: as above; conditions: 250 g ai/ha, Flood, applied to paddy water, 2-leaf stage, evaluated after 13 to 15 days
In short: as §2

[16] = tested on: sedge, umbrella (small-flower umbrella sedge, Cyperus difformis); assay: as above; conditions: 250 g ai/ha, Flood, applied to paddy water, 2-leaf stage, evaluated after 13 to 15 days
In short: as §2

[17] = tested on: barnyardgrass (Echinochloa crus-galli); assay: as above; conditions: 250 g ai/ha, Flood, applied to paddy water, 2-leaf stage, evaluated after 13 to 15 days
In short: as §2

SMILES | Wheat plant response rating (0 to 100 scale) [1] | Wheat plant response rating [1] | Ragweed plant response rating (0 to 100 scale) [2] | Ragweed plant response rating [2] | Foxtail, Green plant response rating (0 to 100 scale) [3] | Foxtail, Green plant response rating [3] | Kochia plant response rating (0 to 100 scale) (kochia (Kochia scoparia) [4]) | Kochia plant response rating (kochia (Kochia scoparia) [4]) | Pigweed plant response rating (0 to 100 scale) [5] | Pigweed plant response rating [5] | Blackgrass plant response rating (0 to 100 scale) [6] | Blackgrass plant response rating [6] | Ryegrass, Italian plant response rating (0 to 100 scale) [7] | Ryegrass, Italian plant response rating [7] | Barnyardgrass plant response rating (0 to 100 scale) [8] | Barnyardgrass plant response rating [8] | Corn plant response rating (0 to 100 scale) (corn (Zea mays)) | Corn plant response rating (corn (Zea mays)) | Ragweed plant response rating (0 to 100 scale) ([9]; 125 g ai/ha Preemergence) | Ragweed plant response rating (0 to 100 scale) ([9]; 500 g ai/ha Preemergence) | also measured
CO/N=C(\c1cccc(Cl)c1)c1c(O)c(C)nn(C)c1=O [Compound 10, 4-[(E)-(3-chlorophenyl)(methoxyimino)methyl]-5-hydroxy-2,6-dimethyl-3(2H)-pyridazinone] | 20 | 0 | 100 | 90 | 20 | 0 | 80 | 70 | 60 | 20 | 30 | 10 | 90 | 60 | 10 | 0 | 0 | 0 | 70 | 90 | Foxtail, Green plant response rating (0 to 100 scale) ([10]; 125 g ai/ha Preemergence): 20; Foxtail, Green plant response rating (0 to 100 scale) ([10]; 500 g ai/ha Preemergence): 20; Kochia plant response rating (0 to 100 scale) (kochia (Kochia scoparia) [11]; 125 g ai/ha Preemergence): 30; Kochia plant response rating (0 to 100 scale) (kochia (Kochia scoparia) [11]; 500 g ai/ha Preemergence): 90; Pigweed plant response rating (0 to 100 scale) ([12]; 125 g ai/ha Preemergence): 20; Pigweed plant response rating (0 to 100 scale) ([12]; 500 g ai/ha Preemergence): 100; Ryegrass, Italian plant response rating (0 to 100 scale) ([13]; 125 g ai/ha Preemergence): 30; Ryegrass, Italian plant response rating (0 to 100 scale) ([13]; 500 g ai/ha Preemergence): 90; Barnyardgrass plant response rating (0 to 100 scale) ([14]; 125 g ai/ha Preemergence): 0; Barnyardgrass plant response rating (0 to 100 scale) ([14]; 500 g ai/ha Preemergence): 10; Plant response rating, Ducksalad (0 to 100 scale, 0 is no effect, 100 is complete control) [15]: 0; Plant response rating, Rice (0 to 100 scale, 0 is no effect, 100 is complete control) (rice (Oryza sativa)): 0; Plant response rating, Sedge, Umbrella (0 to 100 scale, 0 is no effect, 100 is complete control) [16]: 0; Plant response rating, Barnyardgrass (0 to 100 scale, 0 is no effect, 100 is complete control) [17]: 0
CO/N=C(/c1cccc(Cl)c1)c1c(O)c(C)nn(C)c1=O [Compound 11, 4-[(Z)-(3-chlorophenyl)(methoxyimino)methyl]-5-hydroxy-2,6-dimethyl-3(2H)-pyridazinone] | 10 | 0 | 100 | 80 | 40 | 10 | 80 | 70 | 80 | 40 | 70 | 30 | 80 | 60 | 10 | 10 | 10 | 0 | 50 | 50 | Foxtail, Green plant response rating (0 to 100 scale) ([10]; 125 g ai/ha Preemergence): 0; Foxtail, Green plant response rating (0 to 100 scale) ([10]; 500 g ai/ha Preemergence): 70; Kochia plant response rating (0 to 100 scale) (kochia (Kochia scoparia) [11]; 125 g ai/ha Preemergence): 10; Kochia plant response rating (0 to 100 scale) (kochia (Kochia scoparia) [11]; 500 g ai/ha Preemergence): 80; Pigweed plant response rating (0 to 100 scale) ([12]; 125 g ai/ha Preemergence): 40; Pigweed plant response rating (0 to 100 scale) ([12]; 500 g ai/ha Preemergence): 100; Ryegrass, Italian plant response rating (0 to 100 scale) ([13]; 125 g ai/ha Preemergence): 60; Ryegrass, Italian plant response rating (0 to 100 scale) ([13]; 500 g ai/ha Preemergence): 80; Barnyardgrass plant response rating (0 to 100 scale) ([14]; 125 g ai/ha Preemergence): 0; Barnyardgrass plant response rating (0 to 100 scale) ([14]; 500 g ai/ha Preemergence): 40; Plant response rating, Ducksalad (0 to 100 scale, 0 is no effect, 100 is complete control) [15]: 0; Plant response rating, Rice (0 to 100 scale, 0 is no effect, 100 is complete control) (rice (Oryza sativa)): 0; Plant response rating, Sedge, Umbrella (0 to 100 scale, 0 is no effect, 100 is complete control) [16]: 0; Plant response rating, Barnyardgrass (0 to 100 scale, 0 is no effect, 100 is complete control) [17]: 0

Reference: patent publication US20210045385A1, “PYRIDAZINONE-SUBSTITUTED KETOXIMES AS HERBICIDES” (FMC Corporation, priority 2018, published 2021)
